Tests used:
[1] = tested on: adenosine diphosphate induced platelet aggregation (human protein rich plasma); experiment: Inhibition of Platelet Aggregation - In Vitro, adenosine diphosphate induced; type: cell-based; design: key: (-): Inhibition; (+): No inhibition
Excerpt: (§1) It is well known that platelet aggregation inhibitors may be useful as anti-thrombotic drugs. Inhibition of platelet aggregation can be conveniently measured in vitro by monitoring changes in optical density and/or light transmission in platelet rich plasma upon addition of suitable aggregating agents such as adenosine diphosphate, epinephrine, thrombin or collagen. Alternatively, platelet aggregation can be measured in vitro using platelet rich plasma obtained at various time intervals from animals given inhibitors by an oral or parenteral route.
(§2) Human […] is incubated with modified Tyrode's solution in a proportion of 40-50% human […]. The test compounds are added at varying concentrations and after 5 minutes incubation, an aggregating agent such as adenosine diphosphate or collagen is added. The change in optical density (light transmission) is monitored by eye and inhibition is recorded as a (-) or lack of inhibition is recorded as a (+). Test compounds are considered active if they inhibit adenosine diphosphate or collagen induced aggregation at a concentration of 25 mcg/ml or less within 5-10 minutes.

[2] = tested on: collagen induced platelet aggregation (human protein rich plasma); experiment: Inhibition of Platelet Aggregation - In Vitro, collagen induced; type: cell-based; design: key: (-): Inhibition; (+): No inhibition
Excerpt: as §1, §2

[3] = tested on: bronchospasms elicited by 5-hydroxytryptamine; experiment: Bronchodilator activity against 5-hydroxytryptamine bronchospasm (Konzett procedure); type: in vivo, guinea pigs; settings: Cavia porcellus; guinea pig, three logarithmic cumulative intravenous doses
Description: (§3) Bronchodilator activity is determined in guinea pigs against bronchospasms elicited by intravenous injections of 5-hydroxytryptamine, histamine or acetylcholine by the Konzett procedure. [See J. Lulling, P. Lievens, F. El Sayed and J. Prignot, Arzeneimittel-Forschung, 18, 995 (1968).] In Table B bronchodilator activity for representative compounds of this invention against one or more of the three spasmogenic agents is expressed as an ED50 determined from the results obtained with three logarithmic cumulative intravenous doses.

[4] = tested on: bronchospasms elicited by histamine; experiment: Bronchodilator activity against histamine bronchospasm (Konzett procedure); type: in vivo, guinea pigs; settings: Cavia porcellus; guinea pig, three logarithmic cumulative intravenous doses
Description: as §3

[5] = tested on: bronchospasms elicited by acetylcholine; experiment: Bronchodilator activity against acetylcholine bronchospasm (Konzett procedure); type: in vivo, guinea pigs; settings: Cavia porcellus; guinea pig, three logarithmic cumulative intravenous doses
Description: as §3

O=C(O)CCC/C=C\C[C@@H]1C(=O)C=C[C@H]1/C=C/C1(O)CCCCC1 (relative stereo) [nat-(and ent)-15-hydroxy-9-oxo-15,16-tetramethylene-17,18,19,20-tetranor-5-cis-10,13-trans-prostatrienoic Acid]
Inhibition of platelet aggregation, adenosine diphosphate ([1]; drug concentration 25 μg/ml): (+)
Inhibition of platelet aggregation, adenosine diphosphate ([1]; drug concentration 250 μg/ml): (-)
Inhibition of platelet aggregation, collagen ([2]; drug concentration 25 μg/ml): (+)
Inhibition of platelet aggregation, collagen ([2]; drug concentration 250 μg/ml): (-)
ED50 [3]: > 3.2 µg/kg
ED50 [4]: 0.632 µg/kg
ED50 [5]: > 3.2 µg/kg

N#CC1CC(=O)C(CC=CCCCC(=O)O)C1C=CC1(O)CCCCC1 (stereo not drawn) [nat(and ent)-11α/βCyano-15-hydroxy-9-ozxo-15, 16-tetramethylene-17,18,19,20-tetranor-5-cis-13-trans-prostadienoic Acid]
Inhibition of platelet aggregation, adenosine diphosphate ([1]; drug concentration 2.5 μg/ml): (-)
Inhibition of platelet aggregation, adenosine diphosphate ([1]; drug concentration 25 μg/ml): (-)
Inhibition of platelet aggregation, adenosine diphosphate ([1]; drug concentration 250 μg/ml): (-)
Inhibition of platelet aggregation, collagen ([2]; drug concentration 25 μg/ml): (-)
Inhibition of platelet aggregation, collagen ([2]; drug concentration 250 μg/ml): (-)
ED50 [3]: 1.81 µg/kg
ED50 [4]: 0.367 µg/kg
ED50 [5]: 2.74 µg/kg
